These results are taken from article PMC8682760, “Specificity and sensitivity of an RNA targeting type III CRISPR complex coupled with a NucC endonuclease effector” (Nucleic Acids Research, 2021).

One data set has as its target T1, NucC (Vibrio metoecus, UniProt P0DUD6).
T1 construct: Codon-optimised synthetic gene in pEV5HisTEV, N-terminal His8 tag (TEV step as for VmeCmr), E. coli C43(DE3); trimeric species used
T1 sequence (P0DUD6 1-245): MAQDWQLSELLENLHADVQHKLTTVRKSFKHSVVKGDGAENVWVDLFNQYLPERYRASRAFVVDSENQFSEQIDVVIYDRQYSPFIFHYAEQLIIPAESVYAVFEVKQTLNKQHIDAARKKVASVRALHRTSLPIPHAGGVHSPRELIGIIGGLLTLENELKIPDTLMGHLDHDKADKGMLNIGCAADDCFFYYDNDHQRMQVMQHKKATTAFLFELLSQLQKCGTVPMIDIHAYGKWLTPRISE
The data set can be described thus: fluorogenic dsDNA (FAM/Iowa Black) cleavage, plate reader. In kind it is biochemical. The conditions noted are these: read-out: Act50.

Data set [1] deals with the molecule itself. The data set can be described thus: SEC; HiLoad 16/60 Superdex pg 200, 20 mM Tris-HCl, 250 mM NaCl, 10% (v/v) glycerol, pH 7.5; peaks at approximately 160 ml and 180 ml. A general note: In gel filtration, larger molecules generally elute earlier.

“And” between values parts separate entries of the source, which are not always exact repeats. Identical values can stand only once.

Turning to `Nc1ncnc2c1ncn2[C@@H]1O[C@@H]2COP(=O)(O)O[C@H]3[C@@H](O)[C@H](n4cnc5c(N)ncnc54)O[C@@H]3COP(=O)(O)O[C@H]3[C@@H](O)[C@H](n4cnc5c(N)ncnc54)O[C@@H]3COP(=O)(O)O[C@H]2[C@H]1O` [cA3], the EC50 at NucC came to 0.094 ± 0.004 nM.

B1: Vibrio metoecus NucC DNA endonuclease effector (enzyme, UniProt P0DUD6 1-245, looked up)
chain: MAQDWQLSELLENLHADVQHKLTTVRKSFKHSVVKGDGAENVWVDLFNQYLPERYRASRAFVVDSENQFSEQIDVVIYDRQYSPFIFHYAEQLIIPAESVYAVFEVKQTLNKQHIDAARKKVASVRALHRTSLPIPHAGGVHSPRELIGIIGGLLTLENELKIPDTLMGHLDHDKADKGMLNIGCAADDCFFYYDNDHQRMQVMQHKKATTAFLFELLSQLQKCGTVPMIDIHAYGKWLTPRISE
notes: NucC of the Vibrio metoecus type III-B CRISPR locus; source: E. coli C43(DE3), purified (HisTrap, TEV, second HisTrap, SEC on Superdex 200); not shown: His8, N-terminal, cleaved
A word on the stoichiometry N: it is a count of units in the complex or per binding partner. On to B1, for which, in data set [1], the “stoichiometry N” value is 6 and 3.
